Experimental data published in US20240025907A1, “QUINAZOLINE PAN-KRas INHIBITORS” (Mirati Therapeutics, Inc., priority 2022, published 2024).

What was measured:
[1] = tested on: KRas-mediated Phosphorylation of ERK in HCT116 cells; assay: Cisbio HTRF pERK assay, HCT116 cells; format: cell-based; conditions: Homo sapiens, HCT-116, 3 h, HCT116 cells, 3 hrs compound; read-out: Inhibition (HTRF IC50 nM) of KRas-mediated Phosphorylation of ERK, HCT116
[2] = tested on: KRas-mediated Phosphorylation of ERK in A549 cells; assay: Cisbio HTRF pERK assay, A549 cells; format: cell-based; conditions: Homo sapiens, A549, 3 h, A549 cells, 3 hrs compound; read-out: Inhibition (HTRF IC50 nM) of KRas-mediated Phosphorylation of ERK, A549
[3] = tested on: KRas-mediated Phosphorylation of ERK in H358 cells; assay: Cisbio HTRF pERK assay, H358 cells; format: cell-based; conditions: Homo sapiens, NCI-H358, 3 h, H358 cells, 3 hrs compound; read-out: Inhibition (HTRF IC50 nM) of KRas-mediated Phosphorylation of ERK, H358
[4] = tested on: KRas-mediated Phosphorylation of ERK in H727 cells; assay: Cisbio HTRF pERK assay, H727 cells; format: cell-based; conditions: Homo sapiens, NCI-H727, 3 h, 3 hrs compound, read-out: Inhibition (HTRF IC50 nM) of KRas-mediated Phosphorylation of ERK, H727
[5] = tested on: KRas-mediated Phosphorylation of ERK in H460 cells; assay: Cisbio HTRF pERK assay, H460 cells; format: cell-based; conditions: Homo sapiens, NCI-H460, 3 h, H460 cells, 3 hrs compound; read-out: Inhibition (HTRF IC50 nM) of KRas-mediated Phosphorylation of ERK, H460
[6] = tested on: KRas-mediated Phosphorylation of ERK in AsPC-1 cells; assay: Cisbio HTRF pERK assay, AsPC-1 cells; format: cell-based; conditions: Homo sapiens, ASPC1, 3 h, 3 hrs compound, read-out: Inhibition (HTRF IC50 nM) of KRas-mediated Phosphorylation of ERK, AsPC-1
KRas^G12R = target: T1, KRas^G12R (Homo sapiens, UniProt P01116, G12R); assay: KRas TR-FRET tracer displacement binding assay, G12R; conditions: 60-minute incubation
T1 construct: Biotinylated KRas (corresponding to amino acids 1-169, produced at Accelegan Inc.); biotin (biotinylated); purchased Accelegan Inc
T1 sequence (P01116 1-169 isoform P01116-2 G12R): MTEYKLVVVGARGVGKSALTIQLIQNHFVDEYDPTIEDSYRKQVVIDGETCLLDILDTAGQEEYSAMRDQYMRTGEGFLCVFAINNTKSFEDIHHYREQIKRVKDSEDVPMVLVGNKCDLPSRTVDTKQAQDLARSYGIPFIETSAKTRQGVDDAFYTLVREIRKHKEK
Description: This Example illustrates that exemplary compounds of the present invention bind to KRas and are capable of displacing a labeled tracer ligand occupying the KRas binding site. KRas^WT, KRas^G12A, KRas^G12C, KRas^G12D, KRas^G12R, KRas^G12S, KRas^G12V, KRas^G13D, or KRas^Q61H was used in the assay.
The ability of a compound to bind to KRas was measured using a TR-FRET displacement assay. Biotinylated KRas (corresponding to amino acids 1-169, produced at Accelegan Inc.) was incubated with custom made Cy5 labelled tracer, terbium streptavidin (Cisbio Inc.) and compound (1% DMSO final) in buffer (50 mM HEPES, pH 7.5, 5 mM MgCl2, 0.005% Tween-20 and 1 mM DTT). After a 60-minute incubation at room temperature, the reaction was measured using a BMG LABTECH CLARIO star Plus via TR-FRET. […] The POC values were fit to a 4-parameter IC50 equation and the IC50 value reported in Table 1 (selected Examples 172-222).

KRas^G12D = target: T2, KRas^G12D (Homo sapiens, UniProt P01116, G12D); assay: KRas TR-FRET tracer displacement binding assay, G12D; conditions: 60-minute incubation
T2 construct: Biotinylated KRas (corresponding to amino acids 1-169, produced at Accelegan Inc.); biotin (biotinylated); purchased Accelegan Inc
T2 sequence (P01116 1-169 isoform P01116-2 G12D): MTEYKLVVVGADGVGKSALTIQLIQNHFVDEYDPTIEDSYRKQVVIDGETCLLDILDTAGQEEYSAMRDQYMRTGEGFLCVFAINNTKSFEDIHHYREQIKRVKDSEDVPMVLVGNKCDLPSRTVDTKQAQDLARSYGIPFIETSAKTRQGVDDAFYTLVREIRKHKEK
Description: (§1) KRas^WT, KRas^G12A, KRas^G12C, KRas^G12D, KRas^G12R, KRas^G12S, KRas^G12V, KRas^G13D, or KRas^Q61H was used in the assay.
(§2) The ability of a compound to bind to KRas was measured using a TR-FRET displacement assay. Biotinylated KRas (corresponding to amino acids 1-169, produced at Accelegan Inc.) was incubated with custom made Cy5 labelled tracer, terbium streptavidin (Cisbio Inc.) and compound (1% DMSO final) in buffer (50 mM HEPES, pH 7.5, 5 mM MgCl2, 0.005% Tween-20 and 1 mM DTT). After a 60-minute incubation at room temperature, the reaction was measured using a BMG LABTECH CLARIO star Plus via TR-FRET.

KRas^G12V = target: T3, KRas^G12V (Homo sapiens, UniProt P01116, G12V); assay: KRas TR-FRET tracer displacement binding assay, G12V; conditions: 60-minute incubation
T3 construct: Biotinylated KRas (corresponding to amino acids 1-169, produced at Accelegan Inc.); biotin (biotinylated); purchased Accelegan Inc
T3 sequence (P01116 1-169 isoform P01116-2 G12V): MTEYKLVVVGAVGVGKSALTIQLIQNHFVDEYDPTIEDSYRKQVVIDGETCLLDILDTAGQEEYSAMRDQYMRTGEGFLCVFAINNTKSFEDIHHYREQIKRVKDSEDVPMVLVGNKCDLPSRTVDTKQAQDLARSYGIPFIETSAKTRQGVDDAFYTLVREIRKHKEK
Description: as §1, §2

[7] = tested on: KRas-mediated Phosphorylation of ERK in MKN1 cells; assay: Cisbio HTRF pERK assay, MKN1 cells; format: cell-based; conditions: Homo sapiens, MKN-1, 3 hour compound, read-out: Inhibition (HTRF IC50 nM) of KRas-mediated Phosphorylation of ERK, MKN1
Description: (§3) Inhibition of KRas Phosphorylation of ERK (HTRF) by Exemplary Compounds of Formula (I) • Cisbio HTRF Advanced pERK Assay Catalog #64AERPEH • Cell: MKN1, PSN1 • Procedure: • Day 1: Seed 6,000 cells/well −25 μl/well in 384-well white solid bottom plate; RPM1_10% FBS.

[8] = tested on: KRas-mediated Phosphorylation of ERK in PSN1 cells; assay: Cisbio HTRF pERK assay, PSN1 cells; format: cell-based; conditions: Homo sapiens, PSN1, 3 h, 3 hour compound, read-out: Inhibition (HTRF IC50 nM) of KRas-mediated Phosphorylation of ERK, PSN1
Description: as §3

[9] = tested on: KRas-mediated Phosphorylation of ERK in H2009 cells; assay: Cisbio HTRF pERK assay, H2009 cells; format: cell-based; conditions: Homo sapiens, NCI-H2009, H2009 cells; read-out: Inhibition (HTRF IC50 nM) of KRas-mediated Phosphorylation of ERK, H2009
KRas^WT = target: T4, KRas^WT (Homo sapiens, UniProt P01116); assay: KRas TR-FRET tracer displacement binding assay, WT; conditions: 60-minute incubation
T4 construct: Biotinylated KRas (corresponding to amino acids 1-169, produced at Accelegan Inc.); biotin (biotinylated); purchased Accelegan Inc
T4 sequence (P01116 1-169 isoform P01116-2): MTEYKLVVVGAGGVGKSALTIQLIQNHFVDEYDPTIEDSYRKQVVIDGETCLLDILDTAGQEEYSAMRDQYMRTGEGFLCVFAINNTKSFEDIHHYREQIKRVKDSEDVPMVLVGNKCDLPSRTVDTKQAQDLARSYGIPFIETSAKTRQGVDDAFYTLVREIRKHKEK
Description: as §1, §2

KRas^G12S = target: T5, KRas^G12S (Homo sapiens, UniProt P01116, G12S); assay: KRas TR-FRET tracer displacement binding assay, G12S; conditions: 60-minute incubation
T5 construct: Biotinylated KRas (corresponding to amino acids 1-169, produced at Accelegan Inc.); biotin (biotinylated); purchased Accelegan Inc
T5 sequence (P01116 1-169 isoform P01116-2 G12S): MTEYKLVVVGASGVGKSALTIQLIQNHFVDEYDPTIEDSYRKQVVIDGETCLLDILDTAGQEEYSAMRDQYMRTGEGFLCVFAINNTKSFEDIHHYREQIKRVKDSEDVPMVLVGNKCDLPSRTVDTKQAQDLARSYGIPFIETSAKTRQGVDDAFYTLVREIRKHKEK
Description: as §1, §2

KRas^G12C = target: T6, KRas^G12C (Homo sapiens, UniProt P01116, G12C); assay: KRas TR-FRET tracer displacement binding assay, G12C; conditions: 60-minute incubation
T6 construct: Biotinylated KRas (corresponding to amino acids 1-169, produced at Accelegan Inc.); biotin (biotinylated); purchased Accelegan Inc
T6 sequence (P01116 1-169 isoform P01116-2 G12C): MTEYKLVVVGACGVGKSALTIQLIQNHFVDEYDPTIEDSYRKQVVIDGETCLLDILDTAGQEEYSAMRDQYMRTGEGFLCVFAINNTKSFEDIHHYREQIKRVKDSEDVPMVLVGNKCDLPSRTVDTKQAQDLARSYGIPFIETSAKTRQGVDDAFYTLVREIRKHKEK
Description: as §1, §2

SMILES	IC50 [1]	IC50 [2]	IC50 [3]	IC50 [4]	IC50 [5]	IC50 [6]	IC50 (KRas^G12R)	IC50 (KRas^G12D)	IC50 (KRas^G12V)	IC50 [7]	IC50 [8]	IC50 [9]	IC50 (KRas^WT)	IC50 (KRas^G12S)	IC50 (KRas^G12C)
CCc1c(F)ccc2cc(O)cc(-c3c(F)cc4c(NCc5c[nH]c6ncccc56)nc(OC[C@@]56CCCN5C[C@H](F)C6)nc4c3F)c12 [Example 174, 4-(4-(((1H-pyrrolo[2,3-b]pyridin-3-yl)methyl)amino)-6,8-difluoro-2-(((2R,7aS)-2-fluorotetrahydro-1H-pyrrolizin-7a(5H)-yl)methoxy)quinazolin-7-yl)-5-ethyl-6-fluoronaphthalen-2-ol]	2260 nM	734 nM	324 nM	694 nM	968 nM	4020 nM	9 nM	285 nM	9 nM	–	–	–	–	–	–
CCc1c(F)ccc2cc(O)cc(-c3c(F)cc4c(N5CC(c6ccncc6)C5)nc(OC[C@@]56CCCN5C[C@H](F)C6)nc4c3F)c12 [Example 175, 4-(6,8-difluoro-2-(((2R,7aS)-2-fluorotetrahydro-1H-pyrrolizin-7a(5H)-yl)methoxy)-4-(3-(pyridin-4-yl)azetidin-1-yl)quinazolin-7-yl)-5-ethyl-6-fluoronaphthalen-2-ol]	1640 nM	490 nM	185 nM	422 nM	445 nM	1280 nM	16 nM	313 nM	12 nM	–	–	–	–	–	–
N#Cc1c(N)sc2c(F)ccc(-c3c(F)cc4c(NCc5cn[nH]c5)nc(OC[C@@]56CCCN5C[C@H](F)C6)nc4c3F)c12 [Example 214, 4-(4-(((1H-pyrazol-4-yl)methyl)amino)-6,8-difluoro-2-(((2R,7aS)-2-fluorotetrahydro-1H-pyrrolizin-7a(5H)-yl)methoxy)quinazolin-7-yl)-2-amino-7-fluorobenzo[b]thiophene-3-carbonitrile]	> 10000 nM	> 10000 nM	982 nM	> 10000 nM	5060 nM	> 10000 nM	–	–	–	739 nM	> 10000 nM	4690 nM	–	–	–
CN(C)C(=O)c1cc2n(n1)CCCN(c1nc(OC[C@@]34CCCN3C[C@H](F)C4)nc3c(F)c(-c4ccc(F)c5sc(N)c(C#N)c45)c(F)cc13)C2 [Example 215, 5-(7-(2-amino-3-cyano-7-fluorobenzo[b]thiophen-4-yl)-6,8-difluoro-2-(((2R,7aS)-2-fluorotetrahydro-1H-pyrrolizin-7a(5H)-yl)methoxy)quinazolin-4-yl)-N,N-dimethyl-5,6,7,8-tetrahydro-4H-pyrazolo[1,5-a][1,4]diazepine-2-carboxamide]	392 nM	393 nM	21 nM	35 nM	223 nM	25 nM	–	< 2 nM	< 2 nM	13 nM	3820 nM	34 nM	< 2 nM	< 2 nM	4 nM
C[C@@]1(O)COCCN(c2nc(OC[C@@]34CCCN3C[C@H](F)C4)nc3c(F)c(-c4ccc(F)c5sc(N)c(C#N)c45)c(F)cc23)C1 [Example 216, 2-amino-4-(6,8-difluoro-2-(((2R,7aS)-2-fluorotetrahydro-1H-pyrrolizin-7a(5H)-yl)methoxy)-4-((S)-6-hydroxy-6-methyl-1,4-oxazepan-4-yl)quinazolin-7-yl)-7-fluorobenzo[b]thiophene-3-carbonitrile]	346 nM	325 nM	26 nM	131 nM	118 nM	175 nM	–	4 nM	4 nM	12 nM	2440 nM	18 nM	6 nM	5 nM	6 nM
N#Cc1c(N)sc2c(F)ccc(-c3c(Cl)cc4c(N5CC(O)C5)nc(OC[C@@]56CCCN5C[C@H](F)C6)nc4c3F)c12 [Example 219, 2-amino-4-(6-chloro-8-fluoro-2-(((2R,7aS)-2-fluorotetrahydro-1H-pyrrolizin-7a(5H)-yl)methoxy)-4-(3-hydroxyazetidin-1-yl)quinazolin-7-yl)-7-fluorobenzo[b]thiophene-3-carbonitrile]	2250 nM	3340 nM	370 nM	1070 nM	1120 nM	2900 nM	–	–	–	266 nM	> 10000 nM	508 nM	–	–	–
COc1nc(OC[C@@]23CCCN2C[C@H](F)C3)nc2c(F)c(-c3ccc(F)c4sc(N)c(C#N)c34)c(Cl)cc12 [Example 220, 2-amino-4-(6-chloro-8-fluoro-2-(((2R,7aS)-2-fluorotetrahydro-1H-pyrrolizin-7a(5H)-yl)methoxy)-4-methoxyquinazolin-7-yl)-7-fluorobenzo[b]thiophene-3-carbonitrile]	591 nM	261 nM	63 nM	123 nM	134 nM	202 nM	–	–	–	45 nM	5870 nM	49 nM	–	–	–
N#Cc1c(N)sc2c(F)ccc(-c3c(Cl)cc4c(N5CC(CO)C5)nc(OC[C@@]56CCCN5C[C@H](F)C6)nc4c3F)c12 [Example 221, 2-amino-4-(6-chloro-8-fluoro-2-(((2R,7aS)-2-fluorotetrahydro-1H-pyrrolizin-7a(5H)-yl)methoxy)-4-(3-(hydroxymethyl)azetidin-1-yl)quinazolin-7-yl)-7-fluorobenzo[b]thiophene-3-carbonitrile]	573 nM	635 nM	154 nM	1240 nM	394 nM	962 nM	–	–	–	86 nM	6040 nM	145 nM	–	–	–
N#Cc1c(N)sc2c(F)ccc(-c3c(Cl)cc4c(NCC5CS(=O)(=O)C5)nc(OC[C@@]56CCCN5C[C@H](F)C6)nc4c3F)c12 [Example 222, 2-amino-4-(6-chloro-4-(((1,1-dioxidothietan-3-yl)methyl)amino)-8-fluoro-2-(((2R,7aS)-2-fluorotetrahydro-1H-pyrrolizin-7a(5H)-yl)methoxy)quinazolin-7-yl)-7-fluorobenzo[b]thiophene-3-carbonitrile]	1110 nM	1640 nM	207 nM	1440 nM	911 nM	2560 nM	–	–	–	84 nM	> 10000 nM	273 nM	–	–	–
